Test system: Vγ9Vδ2 T cells exposed to compound-loaded K562 cells
Assay: Vγ9Vδ2 T cell interferon γ ELISA with compound-loaded K562 cells
Type: cell-based, human
Settings: versus aryl amidate range 110-230 nM

C/C(=C\CCP(=O)(OCOC(=O)c1cn(-c2ccc(F)cc2)nn1)Oc1ccccc1)CO (stereo not shown) [Compound 25b, (E)-(((5-Hydroxy-4-methylpent-3-en-1-yl)(phenoxy)phosphoryl)oxy)methyl-1-(4-fluorophenyl)-1H-1,2,3-triazole-4-carboxylate]
fold more active than aryl amidates (1 hour cytokine EC50): more than 100 fold

From PMC11853949 (European journal of medicinal chemistry, 2025)
